The test system of this data set is T1, erg-mediated K+ channel (Kerg, KV11).
T1 construct: gene Kcnh2; native channel in GH3 pituitary tumor cells
The experiment in a line: whole-cell patch clamp of native IK(erg) in GH3 cells. It counts as cell-based. (In general: Patch clamp records ionic current or voltage across a cell membrane.)

By IC50 is commonly meant the concentration at which inhibition is half-maximal. A low value points to greater potency. For `CC1=CC(=O)c2cccc(O)c2C1=O` [isoPLB, 8-hydroxy-2-methylnaphthalene-1,4-dione], 2.4 µM corresponded to half-maximal inhibition (IC50).

These data come from publication PMC9029050, “The Effectiveness of Isoplumbagin and Plumbagin in Regulating Amplitude, Gating Kinetics, and Voltage-Dependent Hysteresis of erg-mediated K^+ Currents” (Biomedicines, 2022).
